Results on 25 compounds are retold here after patent publication US20250101041A1, “POSITIVE ALLOSTERIC MODULATORS OF THE MUSCARINIC ACETYLCHOLINE RECEPTOR M4” (Vanderbilt University, priority 2022, published 2025).

In this assay the target is T1, human mAChR M4 (Homo sapiens, UniProt P08173).
T1 construct: expressed in transfected cells; host or cells: CHO-K1 (American Type Culture Collection), stably expressing hM4 and Gqi5
T1 sequence (P08173 1-479): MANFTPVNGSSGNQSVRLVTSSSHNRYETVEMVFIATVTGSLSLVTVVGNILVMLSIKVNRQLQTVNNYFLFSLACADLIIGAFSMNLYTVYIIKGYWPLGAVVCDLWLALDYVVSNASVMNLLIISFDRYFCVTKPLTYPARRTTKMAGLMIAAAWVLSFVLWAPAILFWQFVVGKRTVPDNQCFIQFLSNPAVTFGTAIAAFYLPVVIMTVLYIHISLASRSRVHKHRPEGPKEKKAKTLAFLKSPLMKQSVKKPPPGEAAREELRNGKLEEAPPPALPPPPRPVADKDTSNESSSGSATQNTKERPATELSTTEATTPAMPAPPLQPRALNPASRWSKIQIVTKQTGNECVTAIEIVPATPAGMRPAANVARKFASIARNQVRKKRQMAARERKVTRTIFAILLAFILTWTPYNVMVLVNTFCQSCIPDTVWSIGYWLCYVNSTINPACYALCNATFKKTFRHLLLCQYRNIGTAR
The experiment in a line: mAChR M4 cell-based functional assay: calcium mobilization (Fluo-4, FDSS), potentiation of EC20 acetylcholine response in hM4-Gqi5 CHO-K1 cells. Conditions: human M4; for Emax at 30 µM: CHO-K1, % ACh maximum at 30 μM; for EC50: potentiation of EC20 acetylcholine response, calcium mobilization. The gist of the method: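 Readout is the fluorescence-ratio rise at 1 Hz on FDSS, with PAM activity taken as concentration-dependent enhancement of the EC20 acetylcholine response, fitted four-parameter for EC50/Emax. hM4-Gqi5 CHO-K1 cells carried Fluo-4 AM dye; test compounds (11 points, 1:3) preceded EC20 acetylcholine additions at 144 s and 230 s.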
For orientation: A change in cytosolic calcium serves as a functional read-out for many receptors and channels.

Regarding `Cc1cc(=O)n2nc(N3CCc4ncc(-c5ccccc5OC(F)(F)F)cc4C3)c(C)c(C)c2n1` [Compound 1-275, 2,8,9-trimethyl-7-(3-(2-(trifluoromethoxy)phenyl)-7,8-dihydro-1,6-naphthyridin-6(5H)-yl)-4H-pyrimido[1,2-b]pyridazin-4-one], the maximal response (Emax) at 30 µM was determined as 54% and the EC50 is 1790 nM.
For the compound `COCc1c(C)c(N2CCc3ncc(C(F)(F)F)cc3C2)nn2c(=O)ccnc12` [Compound 1-276, 9-(methoxymethyl)-8-methyl-7-(3-(trifluoromethyl)-7,8-dihydro-1,6-naphthyridin-6(5H)-yl)-4H-pyrimido[1,2-b]pyridazin-4-one], the Emax at 30 µM was determined as 66%.
As to `Cc1cc(=O)n2nc(N3CCc4ncc(-c5ccccc5C(F)(F)F)cc4C3)c(C)c(C)c2n1` [Compound 1-277, 2,8,9-trimethyl-7-(3-(2-(trifluoromethyl)phenyl)-7,8-dihydro-1,6-naphthyridin-6(5H)-yl)-4H-pyrimido[1,2-b] pyridazin-4-one], the Emax at 30 µM amounted to 57% and the EC50 was determined as 1120 nM.
As to `Cc1cc(=O)n2nc(N3CCc4ncc(-c5ccccc5Cl)cc4C3)c(C)c(C)c2n1` [Compound 1-278, 7-(3-(2-chlorophenyl)-7,8-dihydro-1,6-naphthyridin-6(5H)-yl)-2,8,9-trimethyl-4H-pyrimido[1,2-b]pyridazin-4-one], the Emax at 30 µM was found to be 81%.
For `Cc1cc(=O)n2nc(N3CCc4ncc(-c5ccc(F)cc5F)cc4C3)c(C)c(C)c2n1` [Compound 1-279, 7-(3-(2,4-difluorophenyl)-7,8-dihydro-1,6-naphthyridin-6(5H)-yl)-2,8,9-trimethyl-4H-pyrimido[1,2-b]pyridazin-4-one], the maximal response (Emax) at 30 µM worked out at 81% and the EC50 stood at 1120 nM.
Turning to `Cc1cc(=O)n2nc(N3CCc4ncc(-c5ccccc5OC(C)C)cc4C3)c(C)c(C)c2n1` [Compound 1-280, 7-(3-(2-isopropoxyphenyl)-7,8-dihydro-1,6-naphthyridin-6(5H)-yl)-2,8,9-trimethyl-4H-pyrimido[1,2-b]pyridazin-4-one], the Emax at 30 µM came out at 52% and the EC50 was determined as 296 nM.
The corresponding values for `Cc1cc(=O)n2nc(N3CCc4ncc(-c5cc(F)ncc5F)cc4C3)c(C)c(C)c2n1` [Compound 1-281, 7-(3-(2,5-difluoropyridin-4-yl)-7,8-dihydro-1,6-naphthyridin-6(5H)-yl)-2,8,9-trimethyl-4H-pyrimido[1,2-b]pyridazin-4-one] are 85% and 498 nM.
The corresponding values for `COc1cnccc1-c1cnc2c(c1)CN(c1nn3c(=O)cc(C)nc3c(C)c1C)CC2` [Compound 1-282, 7-(3-(3-methoxypyridin-4-yl)-7,8-dihydro-1,6-naphthyridin-6(5H)-yl)-2,8,9-trimethyl-4H-pyrimido[1,2-b]pyridazin-4-one] are 90% and 481 nM.
The corresponding values for `Cc1c(N2CCc3ncc(-c4ccc(F)c(F)c4)cc3C2)nn2c(=O)cc(C(F)F)nc2c1C` [Compound 1-283, 2-(difluoromethyl)-7-(3-(3,4-difluorophenyl)-7,8-dihydro-1,6-naphthyridin-6(5H)-yl)-8,9-dimethyl-4H-pyrimido[1,2-b]pyridazin-4-one] are 79% and 900 nM.
With `Cc1cc(F)c(F)c(-c2cnc3c(c2)CN(c2nn4c(=O)cc(C(F)F)nc4c(C)c2C)CC3)c1` [Compound 1-284, 7-(3-(2,3-difluoro-5-methylphenyl)-7,8-dihydro-1,6-naphthyridin-6(5H)-yl)-2-(difluoromethyl)-8,9-dimethyl-4H-pyrimido[1,2-b] pyridazin-4-one], the Emax at 30 µM came to 77% and the EC50 was 1100 nM.
Consider `COc1cc(C)c(-c2cnc3c(c2)CN(c2nn4c(=O)cc(C)nc4cc2C)CC3)cn1` [Compound 1-285, 7-(3-(6-methoxy-4-methylpyridin-3-yl)-7,8-dihydro-1,6-naphthyridin-6(5H)-yl)-2,8-dimethyl-4H-pyrimido[1,2-b]pyridazin-4-one], for which the Emax at 30 µM turned out to be 89% and the EC50 was found to be 552 nM.
The matching figures for `Cc1cc(=O)n2nc(N3CCc4ncc(-c5cncnc5)cc4C3)c(C)cc2n1` [Compound 1-286, 2,8-dimethyl-7-(3-(pyrimidin-5-yl)-7,8-dihydro-1,6-naphthyridin-6(5H)-yl)-4H-pyrimido[1,2-b]pyridazin-4-one]: 68% and 8720 nM.
`Cc1cc(=O)n2nc(N3CCc4ncc(-c5cnn(C6COC6)c5)cc4C3)c(C)cc2n1` [Compound 1-287, 2,8-dimethyl-7-(3-(1-(oxetan-3-yl)-1H-pyrazol-4-yl)-7,8-dihydro-1,6-naphthyridin-6(5H)-yl)-4H-pyrimido[1,2-b]pyridazin-4-one]: the Emax at 30 µM worked out at 85% and the EC50 is 1210 nM.
Turning to `Cc1cc(=O)n2nc(N3CCc4ncc(-c5cnn6ccccc56)cc4C3)c(C)cc2n1` [Compound 1-288, 2,8-dimethyl-7-(3-(pyrazolo[1,5-a]pyridin-3-yl)-7,8-dihydro-1,6-naphthyridin-6(5H)-yl)-4H-pyrimido[1,2-b] pyridazin-4-one], the Emax at 30 µM turned out to be 84% and the EC50 worked out at 311 nM.
The corresponding values for `Cc1cncc(-c2cnc3c(c2)CN(c2nn4c(=O)cc(C)nc4cc2C)CC3)c1` [Compound 1-289, 2,8-dimethyl-7-(3-(5-methylpyridin-3-yl)-7,8-dihydro-1,6-naphthyridin-6(5H)-yl)-4H-pyrimido[1,2-b] pyridazin-4-one] are 70% and 4550 nM.
The matching figures for `Cc1cc(=O)n2nc(N3CCc4ncc(-c5cccnc5)cc4C3)c(C)cc2n1` [Compound 1-290, 2,8-dimethyl-7-(3-(pyridin-3-yl)-7,8-dihydro-1,6-naphthyridin-6(5H)-yl)-4H-pyrimido[1,2-b]pyridazin-4-one]: 90% and 375 nM.
The matching figures for `Cc1cc(=O)n2nc(N3CCc4ncc(-c5cnn(CC(F)(F)F)c5)cc4C3)c(C)cc2n1` [Compound 1-291, 2,8-dimethyl-7-(3-(1-(2,2,2-trifluoroethyl)-1H-pyrazol-4-yl)-7,8-dihydro-1,6-naphthyridin-6(5H)-yl)-4H-pyrimido[1,2-b]pyridazin-4-one]: 82% and 356 nM.
As to `Cc1ccc(-c2cnc3c(c2)CN(c2nn4c(=O)cc(C)nc4cc2C)CC3)c(C)c1` [Compound 1-292, 7-(3-(2,4-dimethylphenyl)-7,8-dihydro-1,6-naphthyridin-6(5H)-yl)-2,8-dimethyl-4H-pyrimido[1,2-b]pyridazin-4-one], the maximal effect (Emax) at 30 µM is 92% and the concentration for a half-maximal effect (EC50) worked out at 477 nM.
The corresponding values for `Cc1ccc(-c2cnc3c(c2)CN(c2nn4c(=O)cc(C)nc4cc2C)CC3)cc1` [Compound 1-293, 2,8-dimethyl-7-(3-(p-tolyl)-7,8-dihydro-1,6-naphthyridin-6(5H)-yl)-4H-pyrimido[1,2-b]pyridazin-4-one] are 88% and 331 nM.
The corresponding values for `Cc1cc(=O)n2nc(N3CCc4ncc(-c5cnn(C)c5C)cc4C3)c(C)cc2n1` [Compound 1-294, 7-(3-(1,5-dimethyl-1H-pyrazol-4-yl)-7,8-dihydro-1,6-naphthyridin-6(5H)-yl)-2,8-dimethyl-4H-pyrimido[1,2-b]pyridazin-4-one] are 99% and 245 nM.
The matching figures for `COc1ccncc1-c1cnc2c(c1)CN(c1nn3c(=O)cc(C)nc3cc1C)CC2` [Compound 1-295, 7-(3-(4-methoxypyridin-3-yl)-7,8-dihydro-1,6-naphthyridin-6(5H)-yl)-2,8-dimethyl-4H-pyrimido[1,2-b]pyridazin-4-one]: 96% and 89 nM.
For `Cc1cc2nccn2cc1-c1cnc2c(c1)CN(c1nn3c(=O)ccnc3c(C)c1C)CC2` [Compound 1-296, 8,9-dimethyl-7-(3-(7-methylimidazo[1,2-a]pyridin-6-yl)-7,8-dihydro-1,6-naphthyridin-6(5H)-yl)-4H-pyrimido[1,2-b]pyridazin-4-one], the Emax at 30 µM was 62% and the EC50 is 563 nM.
The matching figures for `Cc1cc(=O)n2nc(N3CCc4ncc(-c5cccs5)cc4C3)c(C)cc2n1` [Compound 1-297, 2,8-dimethyl-7-(3-(thiophen-2-yl)-7,8-dihydro-1,6-naphthyridin-6(5H)-yl)-4H-pyrimido[1,2-b]pyridazin-4-one]: 87% and 76 nM.
Regarding `COc1ccsc1-c1cnc2c(c1)CN(c1nn3c(=O)cc(C)nc3cc1C)CC2` [Compound 1-298, 7-(3-(3-methoxythiophen-2-yl)-7,8-dihydro-1,6-naphthyridin-6(5H)-yl)-2,8-dimethyl-4H-pyrimido[1,2-b]pyridazin-4-one], the Emax at 30 µM came to 85% and the concentration for a half-maximal effect (EC50) was found to be 83 nM.
The matching figures for `Cc1cc(=O)n2nc(N3CCc4ncc(-c5ccc(CO)s5)cc4C3)c(C)cc2n1` [Compound 1-299, 7-(3-(5-(hydroxymethyl)thiophen-2-yl)-7,8-dihydro-1,6-naphthyridin-6(5H)-yl)-2,8-dimethyl-4H-pyrimido[1,2-b]pyridazin-4-one]: 93% and 41 nM.

One may read the Emax as the greatest response seen or fitted, relative to the assay's reference. Broadly, the EC50 is the midpoint of the concentration-response curve.
